Measurements as given in ChEMBL document CHEMBL1201862, “PubChem BioAssay data set” (2004).
Activity calls are given as the source filed them.

Experiments:
[1] = biological target: T1, Histone-lysine N-methyltransferase NSD2 (Homo sapiens, UniProt O96028); format: biochemical
T1 sequence (O96028 whole entry): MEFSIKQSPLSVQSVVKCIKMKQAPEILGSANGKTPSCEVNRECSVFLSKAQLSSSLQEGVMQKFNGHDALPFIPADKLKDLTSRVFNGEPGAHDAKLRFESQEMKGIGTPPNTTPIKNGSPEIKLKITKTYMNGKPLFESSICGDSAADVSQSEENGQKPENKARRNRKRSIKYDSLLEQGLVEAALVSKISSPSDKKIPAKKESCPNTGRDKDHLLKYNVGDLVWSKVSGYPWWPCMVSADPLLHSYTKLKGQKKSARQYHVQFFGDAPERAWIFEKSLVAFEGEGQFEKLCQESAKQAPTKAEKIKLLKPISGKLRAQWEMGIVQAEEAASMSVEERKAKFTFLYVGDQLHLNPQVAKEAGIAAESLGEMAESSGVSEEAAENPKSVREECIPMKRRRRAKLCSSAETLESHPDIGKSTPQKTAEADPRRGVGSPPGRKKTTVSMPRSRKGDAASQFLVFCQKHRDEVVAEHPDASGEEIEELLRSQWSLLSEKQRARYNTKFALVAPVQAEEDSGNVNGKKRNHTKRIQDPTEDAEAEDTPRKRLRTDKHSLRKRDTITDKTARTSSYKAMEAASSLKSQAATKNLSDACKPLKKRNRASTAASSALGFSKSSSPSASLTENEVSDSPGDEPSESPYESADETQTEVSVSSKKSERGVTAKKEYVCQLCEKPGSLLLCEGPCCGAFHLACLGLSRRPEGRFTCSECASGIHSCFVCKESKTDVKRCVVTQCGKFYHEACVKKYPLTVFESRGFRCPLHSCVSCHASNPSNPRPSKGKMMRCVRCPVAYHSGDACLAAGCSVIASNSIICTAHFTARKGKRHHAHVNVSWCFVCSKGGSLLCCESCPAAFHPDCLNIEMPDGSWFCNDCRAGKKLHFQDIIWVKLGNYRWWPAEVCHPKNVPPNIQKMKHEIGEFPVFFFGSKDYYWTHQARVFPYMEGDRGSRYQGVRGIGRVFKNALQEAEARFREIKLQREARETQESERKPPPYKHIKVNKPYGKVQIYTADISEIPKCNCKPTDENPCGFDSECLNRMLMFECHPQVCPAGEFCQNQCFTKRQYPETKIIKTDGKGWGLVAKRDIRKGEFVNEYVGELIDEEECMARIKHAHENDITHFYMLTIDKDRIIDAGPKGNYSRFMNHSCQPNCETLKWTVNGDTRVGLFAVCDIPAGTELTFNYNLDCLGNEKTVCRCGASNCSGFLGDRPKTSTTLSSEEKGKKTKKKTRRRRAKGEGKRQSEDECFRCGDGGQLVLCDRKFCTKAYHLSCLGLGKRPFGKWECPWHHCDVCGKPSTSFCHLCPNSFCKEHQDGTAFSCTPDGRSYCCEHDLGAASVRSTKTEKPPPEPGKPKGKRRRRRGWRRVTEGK

[2] = biological target: Dual specificity tyrosine-phosphorylation-regulated kinase 1A (Homo sapiens, UniProt Q13627); format: functional;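 further: measured against DYRK1A as one member of a broad kinome profiling panel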
[3] = biological target: Vascular endothelial growth factor receptor 2 (Homo sapiens, UniProt P35968); format: functional
[4] = biological target: Insulin-like growth factor 1 receptor (Homo sapiens, UniProt P08069); assay: Navigating the Kinome. Panel member name: IGF1R; format: functional
Chain of Insulin-like growth factor 1 receptor (P08069 31-736 limits assumed): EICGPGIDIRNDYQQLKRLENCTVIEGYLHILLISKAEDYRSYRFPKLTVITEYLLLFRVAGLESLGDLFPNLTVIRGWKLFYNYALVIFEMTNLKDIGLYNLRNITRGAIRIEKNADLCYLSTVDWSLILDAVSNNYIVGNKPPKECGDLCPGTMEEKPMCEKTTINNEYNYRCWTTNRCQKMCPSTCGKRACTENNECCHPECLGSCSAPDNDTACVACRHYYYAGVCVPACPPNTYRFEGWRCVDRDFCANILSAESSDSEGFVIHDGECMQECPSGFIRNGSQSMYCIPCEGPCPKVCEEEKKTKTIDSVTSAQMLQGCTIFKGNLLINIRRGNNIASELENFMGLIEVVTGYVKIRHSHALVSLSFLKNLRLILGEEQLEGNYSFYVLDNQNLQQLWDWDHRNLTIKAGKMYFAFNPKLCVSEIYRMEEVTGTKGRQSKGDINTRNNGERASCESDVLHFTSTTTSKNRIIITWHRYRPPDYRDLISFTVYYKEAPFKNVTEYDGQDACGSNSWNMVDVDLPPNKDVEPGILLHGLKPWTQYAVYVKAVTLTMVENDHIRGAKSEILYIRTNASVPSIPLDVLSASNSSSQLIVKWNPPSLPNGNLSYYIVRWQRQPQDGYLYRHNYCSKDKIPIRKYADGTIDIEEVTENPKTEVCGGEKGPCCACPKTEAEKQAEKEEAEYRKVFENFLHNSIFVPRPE
Chain of Insulin-like growth factor 1 receptor (P08069 741-1367 limits assumed): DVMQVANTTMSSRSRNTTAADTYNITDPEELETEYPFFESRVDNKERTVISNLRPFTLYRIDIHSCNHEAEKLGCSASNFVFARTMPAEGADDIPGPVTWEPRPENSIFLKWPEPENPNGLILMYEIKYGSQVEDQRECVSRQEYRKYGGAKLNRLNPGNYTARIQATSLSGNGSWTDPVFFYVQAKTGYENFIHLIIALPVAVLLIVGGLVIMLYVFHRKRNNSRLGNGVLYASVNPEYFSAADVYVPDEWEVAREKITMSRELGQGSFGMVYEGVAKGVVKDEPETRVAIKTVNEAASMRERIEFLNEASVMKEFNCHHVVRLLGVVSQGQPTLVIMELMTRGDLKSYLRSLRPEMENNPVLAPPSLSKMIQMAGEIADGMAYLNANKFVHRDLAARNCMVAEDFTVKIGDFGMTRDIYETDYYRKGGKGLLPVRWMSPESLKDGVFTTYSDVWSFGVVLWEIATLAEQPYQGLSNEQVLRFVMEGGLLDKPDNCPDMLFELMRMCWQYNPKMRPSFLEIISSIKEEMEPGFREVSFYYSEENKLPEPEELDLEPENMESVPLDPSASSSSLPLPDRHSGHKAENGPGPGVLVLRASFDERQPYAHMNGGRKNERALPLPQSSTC

[5] = biological target: G protein-coupled receptor kinase 5 (Homo sapiens, UniProt P34947); assay: Navigating the Kinome. Panel member name: GPRK5; format: functional
Chain of G protein-coupled receptor kinase 5 (P34947 whole entry): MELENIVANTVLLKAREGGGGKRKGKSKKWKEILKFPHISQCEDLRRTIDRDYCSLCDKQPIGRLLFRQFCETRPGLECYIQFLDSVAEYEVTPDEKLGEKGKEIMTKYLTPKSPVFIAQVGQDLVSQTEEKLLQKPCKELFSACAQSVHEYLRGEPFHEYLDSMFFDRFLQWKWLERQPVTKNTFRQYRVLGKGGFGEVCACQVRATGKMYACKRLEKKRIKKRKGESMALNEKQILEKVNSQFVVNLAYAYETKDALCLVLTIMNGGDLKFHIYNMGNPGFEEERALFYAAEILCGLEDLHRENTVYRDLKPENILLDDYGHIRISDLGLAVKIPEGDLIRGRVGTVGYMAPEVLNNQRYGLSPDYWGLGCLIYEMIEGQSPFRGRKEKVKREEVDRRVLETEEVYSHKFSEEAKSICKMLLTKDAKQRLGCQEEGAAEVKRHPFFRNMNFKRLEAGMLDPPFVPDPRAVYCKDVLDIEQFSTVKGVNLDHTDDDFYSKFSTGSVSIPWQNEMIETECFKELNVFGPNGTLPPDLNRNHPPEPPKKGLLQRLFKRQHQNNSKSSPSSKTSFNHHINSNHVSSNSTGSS

[6] = biological target: Dual specificity protein kinase CLK2 (Homo sapiens, UniProt P49760); format: functional
Chain of Dual specificity protein kinase CLK2 (P49760 whole entry): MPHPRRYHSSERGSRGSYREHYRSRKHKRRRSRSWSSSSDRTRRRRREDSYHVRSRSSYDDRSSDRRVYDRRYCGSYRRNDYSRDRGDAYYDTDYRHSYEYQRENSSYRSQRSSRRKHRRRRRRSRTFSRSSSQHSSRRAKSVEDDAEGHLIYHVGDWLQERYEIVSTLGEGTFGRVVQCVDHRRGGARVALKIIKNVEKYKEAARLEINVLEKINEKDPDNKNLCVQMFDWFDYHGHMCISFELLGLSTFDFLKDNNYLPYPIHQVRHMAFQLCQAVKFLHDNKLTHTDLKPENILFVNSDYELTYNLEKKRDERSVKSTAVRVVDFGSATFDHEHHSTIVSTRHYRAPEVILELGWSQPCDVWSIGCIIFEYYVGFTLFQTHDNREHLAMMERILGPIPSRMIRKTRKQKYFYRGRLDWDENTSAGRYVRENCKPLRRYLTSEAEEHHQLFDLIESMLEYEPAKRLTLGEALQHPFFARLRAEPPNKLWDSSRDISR

[7] = biological target: cAMP-dependent protein kinase catalytic subunit PRKX (Homo sapiens, UniProt P51817); format: functional
Chain of cAMP-dependent protein kinase catalytic subunit PRKX (P51817 whole entry): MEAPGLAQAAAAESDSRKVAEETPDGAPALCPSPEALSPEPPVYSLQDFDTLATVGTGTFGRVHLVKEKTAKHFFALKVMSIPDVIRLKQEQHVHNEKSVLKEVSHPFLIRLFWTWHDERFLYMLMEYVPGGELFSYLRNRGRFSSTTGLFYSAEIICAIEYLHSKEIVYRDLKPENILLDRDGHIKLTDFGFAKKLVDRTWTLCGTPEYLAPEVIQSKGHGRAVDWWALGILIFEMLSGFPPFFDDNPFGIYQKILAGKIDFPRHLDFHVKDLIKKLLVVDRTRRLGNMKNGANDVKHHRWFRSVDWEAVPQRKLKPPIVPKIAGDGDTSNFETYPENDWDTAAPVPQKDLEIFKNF

[8] = biological target: 5'-AMP-activated protein kinase catalytic subunit alpha-1 (Homo sapiens, UniProt Q13131); format: functional
[9] = biological target: Leucine-rich repeat serine/threonine-protein kinase 2 (Homo sapiens, UniProt Q5S007); format: functional;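 further: value from a broad kinome-wide panel profiling study in which LRRK2 was one of the kinases tested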
[10] = biological target: Leukocyte tyrosine kinase receptor (Homo sapiens, UniProt P29376); assay: Navigating the Kinome. Panel member name: LTK; format: functional
[11] = biological target: Serine/threonine-protein kinase PAK 4 (Homo sapiens, UniProt O96013); format: functional;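 further: value obtained within a kinome profiling panel in which PAK4 was one of the panel members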
[12] = biological target: Rho-associated protein kinase 1 (Homo sapiens, UniProt Q13464); format: functional;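 further: measured within a broad kinome-wide panel profiling many kinases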
Chain of Rho-associated protein kinase 1 (Q13464 whole entry): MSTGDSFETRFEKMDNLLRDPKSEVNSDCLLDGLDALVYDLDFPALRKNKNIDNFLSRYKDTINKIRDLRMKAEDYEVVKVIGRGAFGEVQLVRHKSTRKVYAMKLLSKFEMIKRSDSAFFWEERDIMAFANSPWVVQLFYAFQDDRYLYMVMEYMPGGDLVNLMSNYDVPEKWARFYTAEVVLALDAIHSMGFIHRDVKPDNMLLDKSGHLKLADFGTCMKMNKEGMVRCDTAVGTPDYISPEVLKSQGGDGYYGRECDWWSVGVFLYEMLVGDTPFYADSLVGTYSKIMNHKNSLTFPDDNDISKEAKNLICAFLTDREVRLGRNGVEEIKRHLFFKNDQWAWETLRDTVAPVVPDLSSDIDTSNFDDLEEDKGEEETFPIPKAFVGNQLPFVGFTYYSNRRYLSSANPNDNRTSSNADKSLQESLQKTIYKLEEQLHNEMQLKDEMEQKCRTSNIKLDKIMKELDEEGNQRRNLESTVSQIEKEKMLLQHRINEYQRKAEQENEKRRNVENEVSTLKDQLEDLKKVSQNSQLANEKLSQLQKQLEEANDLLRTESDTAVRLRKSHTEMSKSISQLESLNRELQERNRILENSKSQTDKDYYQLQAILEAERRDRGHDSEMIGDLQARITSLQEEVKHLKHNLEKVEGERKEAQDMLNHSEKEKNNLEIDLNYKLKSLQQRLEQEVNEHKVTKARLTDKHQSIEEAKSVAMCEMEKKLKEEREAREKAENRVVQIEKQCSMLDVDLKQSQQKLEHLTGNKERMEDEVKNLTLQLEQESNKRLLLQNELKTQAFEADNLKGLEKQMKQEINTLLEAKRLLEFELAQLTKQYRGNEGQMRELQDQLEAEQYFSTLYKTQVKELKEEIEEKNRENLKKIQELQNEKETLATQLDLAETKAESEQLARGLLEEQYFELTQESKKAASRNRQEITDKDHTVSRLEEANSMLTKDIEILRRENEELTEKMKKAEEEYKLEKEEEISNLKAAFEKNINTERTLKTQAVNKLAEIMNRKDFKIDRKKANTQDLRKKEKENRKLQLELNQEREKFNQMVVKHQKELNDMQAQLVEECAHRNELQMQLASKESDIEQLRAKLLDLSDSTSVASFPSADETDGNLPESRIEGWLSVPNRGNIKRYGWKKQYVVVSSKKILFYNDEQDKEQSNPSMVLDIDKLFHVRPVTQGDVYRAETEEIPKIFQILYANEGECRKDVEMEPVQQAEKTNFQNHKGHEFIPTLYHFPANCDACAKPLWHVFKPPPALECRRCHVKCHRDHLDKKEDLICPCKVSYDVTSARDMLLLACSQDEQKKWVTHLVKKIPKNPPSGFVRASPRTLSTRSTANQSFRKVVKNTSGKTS

[13] = biological target: Mitogen-activated protein kinase kinase kinase kinase 2 (Homo sapiens, UniProt Q12851); format: functional;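 further: measured as one member of a kinome-wide kinase panel, with MAP4K2 as the panel entry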
Chain of Mitogen-activated protein kinase kinase kinase kinase 2 (Q12851 whole entry): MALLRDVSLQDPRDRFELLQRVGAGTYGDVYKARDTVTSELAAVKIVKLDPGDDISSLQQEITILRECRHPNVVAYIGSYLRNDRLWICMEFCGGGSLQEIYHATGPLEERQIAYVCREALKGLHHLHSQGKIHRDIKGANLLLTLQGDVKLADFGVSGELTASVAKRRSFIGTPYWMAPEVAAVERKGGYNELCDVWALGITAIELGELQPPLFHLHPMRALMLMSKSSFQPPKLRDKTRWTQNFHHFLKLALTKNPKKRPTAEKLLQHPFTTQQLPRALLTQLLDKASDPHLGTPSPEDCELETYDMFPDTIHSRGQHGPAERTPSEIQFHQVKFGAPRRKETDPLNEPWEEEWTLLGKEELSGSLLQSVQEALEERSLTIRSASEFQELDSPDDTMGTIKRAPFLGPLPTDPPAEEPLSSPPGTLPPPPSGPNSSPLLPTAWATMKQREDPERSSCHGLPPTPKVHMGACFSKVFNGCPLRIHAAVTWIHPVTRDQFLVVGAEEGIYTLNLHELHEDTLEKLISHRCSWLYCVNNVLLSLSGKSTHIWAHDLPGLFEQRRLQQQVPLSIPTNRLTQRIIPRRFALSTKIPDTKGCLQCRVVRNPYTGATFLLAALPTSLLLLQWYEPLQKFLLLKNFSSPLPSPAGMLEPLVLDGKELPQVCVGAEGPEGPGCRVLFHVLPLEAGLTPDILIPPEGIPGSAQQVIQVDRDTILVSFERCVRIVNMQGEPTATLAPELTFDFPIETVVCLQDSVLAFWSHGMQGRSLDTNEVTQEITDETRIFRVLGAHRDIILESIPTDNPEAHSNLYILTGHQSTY

| SMILES | AC50 [1] | Ki [2] | Ki [3] | Ki [4] | Ki [5] | Ki [6] | Ki [7] | Ki [8] | Ki [9] | Ki [10] | Ki [11] | Ki [12] | Ki [13] |
| --- | --- | --- | --- | --- | --- | --- | --- | --- | --- | --- | --- | --- | --- |
| Nc1nnc2c(n1)CCCC2 | 16.5 µM (active) |  |  |  |  |  |  |  |  |  |  |  |  |
| O=C(Cc1ccccc1Cl)NC1(O)C(=O)c2ccccc2C1=O | 8.16 µM (active) |  |  |  |  |  |  |  |  |  |  |  |  |
| Nc1c(-c2ccc(NC(=O)Nc3cccc(C(F)(F)F)c3)cc2)cnc2c(-c3ccc4c(c3)OCO4)cnn12 |  | > 2 µM (inactive) | 0.0126 µM (active) | > 2.51 µM (inactive) | > 3.98 µM (inactive) | > 3.98 µM (inactive) | > 3.16 µM (inactive) | > 3.16 µM (inactive) | > 2.51 µM (inactive) | > 2.51 µM (inactive) | > 5.01 µM (inactive) | > 3.98 µM (inactive) | > 2.51 µM (inactive) |
| O=C(Nc1cc(-c2c[nH]c3ncccc23)cc(Cl)n1)c1ccccc1 |  | 0.251 µM (active) | > 2.51 µM (inactive) | > 2.51 µM (inactive) | > 3.98 µM (inactive) | > 3.16 µM (inactive) | > 3.16 µM (inactive) | > 3.16 µM (inactive) | > 2.51 µM (inactive) | > 2.51 µM (inactive) | > 5.01 µM (inactive) | > 0.316 µM (inactive) | > 2.51 µM (inactive) |
